Values joined by “and” are separate entries in the source; they are usually repeats but may differ in a detail not shown here. Equal values may be shown once.
Row | SMILES | melting point
1 | CCN(CC)C(=S)SSC(=S)N(CC)CC [tetraethylthiuram disulfide] | 71 °C
2 | C1CCSC1 [tetrahydrothiophene] | -96 °C
3 | CC(C)OP(=O)(CCP(=O)(OC(C)C)OC(C)C)OC(C)C [tetraisopropyl 1,2-ethylenediphosphonate] | 36 °C
4 | CCCCCCCCCCCCCCCCCCCCCCCCCCCCCCCCCCCCCCCCCCCC [tetratetracontane] | 88 °C
5 | Cn1cnc2c1c(=O)[nH]c(=O)n2C [theobromine] | 348 °C
6 | Cn1c(=O)c2[nH]cnc2n(C)c1=O [theophylline] | 270 °C
7 | CC(=O)S [thioacetic acid] | -17 °C
8 | O=C(S)c1ccccc1 [thiobenzoic acid] | 17 °C
9 | O=S(=O)(Cl)c1cccs1 [thiophene-2-sulfonyl chloride] | 30 °C
10 | Sc1ccccc1 [thiophenol] | -15 °C
11 | Cc1c[nH]c(=O)[nH]c1=O [thymine] | 316 °C
12 | Cc1c(N=C=O)cccc1N=C=O [toluene-2,6-diisocyanate] | 13 °C
13 | C/C=C/C=C/CO [trans,trans-2,4-hexadien-1-ol] | 31 °C
14 | Cl/C=C/Cl [trans-1,2-dichloroethylene] | -50 °C
15 | C/C=C/c1ccccc1 [trans-1-phenyl-1-propene] | -29 °C
16 | O=C(O)/C=C/c1ccc(Cl)cc1Cl [trans-2,4-dichlorocinnamic acid] | 234 °C
17 | O=C(O)/C=C/c1ccc(F)cc1F [trans-2,4-difluorocinnamic acid] | 217 °C
18 | C[C@@H]1CN[C@@H](C)CN1 [trans-2,5-dimethylpiperazine] | 117 °C
19 | C/C=C/CCC [trans-2-hexene] | -99 °C
20 | CC/C=C/CC [trans-3-hexene] | -113 °C
21 | COc1ccc(C(=O)C=C(C)c2ccc(OC)cc2)cc1 [trans-4,4'-Dimethoxy-beta-methylchalcone] | 87 °C
22 | O=C(O)/C=C/c1ccc(C(F)(F)F)cc1 [trans-4-(trifluoromethyl)cinnamic acid] | 232 °C

Row | SMILES | melting point
23 | C/C=C/c1ccc(OC)cc1 [trans-anethole] [listing 1 of 2 here] | 22 °C
24 | C/C=C/c1ccc(OC)cc1 [trans-anethole] [listing 2 of 2 here] | 23 °C
25 | O=C(/C=C/c1ccccc1)c1ccccc1 [trans-chalcone] | 56 °C
26 | O=C(O)/C=C/c1ccccc1 [trans-cinnamic_acid] | 133 °C
27 | C/C=C/C(=O)O [trans-crotonic acid] | 72 °C
28 | C(=C\c1ccccc1)/c1ccccc1 [trans-stilbene] | 124 °C
29 | c1ccc2c(P(c3cccc4ccccc34)c3cccc4ccccc34)cccc2c1 [tri(1-naphthyl)phosphine] | 267 °C
30 | CCCCP(=O)(CCCC)CCCC [tri-n-butylphosphine oxide] | 67 °C
31 | CCCCCCCCCCCCN(CCCCCCCCCCCC)CCCCCCCCCCCC [tri-n-dodecylamine] | 15 °C
32 | CCCCCCCCP(=O)(CCCCCCCC)CCCCCCCC [tri-n-octylphosphine oxide] | 55 °C
33 | CC(=O)OCC(COC(C)=O)OC(C)=O [triacetin] | 3 °C
34 | O=C\1\C=C5/[C@@](/C=C/1)(C)[C@]2(F)[C@H]([C@H]3[C@](C[C@@H]2O)([C@@]4(OC(O[C@@H]4C3)(C)C)C(=O)CO)C)CC5 [triamcinolone acetonide] | 293 °C
35 | Cc1nnc2n1-c1ccc(Cl)cc1C(c1ccccc1Cl)=NC2 [triazolam] | 234 °C
36 | O=C(O)C(Cl)(Cl)Cl [trichloroacetic acid] | 57.5 °C
37 | ClC=C(Cl)Cl [trichloroethylene] | -85 °C
38 | CCP(=O)(CC)CC [triethylphosphine oxide] | 49 °C
39 | CP(C)(C)=S [trimethylphosphine sulfide] | 156 °C
40 | c1ccc(OP(Oc2ccccc2)Oc2ccccc2)cc1 [triphenyl phosphite] | 23 °C
41 | S=C=NC(c1ccccc1)(c1ccccc1)c1ccccc1 [triphenylmethyl isothiocyanate] | 135 °C
42 | NCCc1ccc(O)cc1 [tyramine] | 164 °C
43 | CCCCC(=O)c1ccccc1 [valerophenone] | -9 °C
44 | COC(CN1CCN(CC(O)C(OC)c2ccccc2)CC1)c1ccccc1 (stereo not drawn) [zipeprol] | 83 °C

Further lines, results first:

Row | melting point | SMILES
45 | 93 °C | c1ccc(CN(Cc2ccccc2)Cc2ccccc2)cc1 [tribenzylamine]
46 | 160 °C | O=C(O)CC(CC(=O)O)C(=O)O [tricarballylic acid]
47 | -63 °C | ClC(Cl)Cl [trichloromethane]
48 | -5 °C | CCCCCCCCCCCCC [tridecane]
49 | -85 °C | CCOB(OCC)OCC [triethyl borate]
50 | -115 °C | CCN(CC)CC [triethylamine]
51 | -53 °C | COC(OC)OC [trimethyl orthoformate]
52 | 199 °C | c1ccc2c(c1)c1ccccc1c1ccccc21 [triphenylene]
53 | 94 °C | c1ccc(C(c2ccccc2)c2ccccc2)cc1 [triphenylmethane]
54 | 62 °C | Fc1cccc(P(c2cccc(F)c2)c2cccc(F)c2)c1 [tris(3-fluorophenyl)phosphine]
55 | 128 °C | Fc1c(F)c(F)c(B(c2c(F)c(F)c(F)c(F)c2F)c2c(F)c(F)c(F)c(F)c2F)c(F)c1F [tris(pentafluorophenyl)borane]
56 | 96 °C | CCN(Cc1ccncc1)C(=O)C(CO)c1ccccc1 (stereo not drawn) [tropicamide]
57 | 156 °C | COc1ccccc1N1CCN(CCCNc2cc(=O)n(C)c(=O)n2C)CC1 [urapidil]
58 | -92 °C | CCCCC=O [valeraldehyde]
59 | -34 °C | CCCCC(=O)O [valeric acid]
60 | 211 °C | COc1cc(C(=O)NN)ccc1O [vanillic acid hydrazide]
61 | 100 °C (2×) and 102 °C | c1ccc2c(c1)Cc1ccccc1O2 [xanthene]
62 | 94 °C | OC[C@@H](O)[C@H](O)[C@@H](O)CO [xylitol]
63 | 106 °C | Cc1cn(C2CC(N=[N+]=[N-])C(CO)O2)c(=O)[nH]c1=O (stereo not drawn) [zidovudine]

From the Bradley open melting point set (2014)
